The values that follow come from ChEMBL document CHEMBL5579801, “Novel orexin receptor agonists based on arene- or pyridine-fused 1,3-dihydro-2H-imidazole-2-imines” (Bioorg Med Chem Lett, 2024).

One may read the Tmax as the time at which the peak concentration occurs. The term half-life denotes the time in which the quantity being followed falls by half. Low values mean fast loss, high ones slow loss. As a reminder, the Cmax is the highest concentration seen after dosing. Broadly, the AUC(0-t) is exposure summed from dosing to a finite time, without extrapolation to infinity. A lower AUC(0-t) goes with low exposure. In general, EC50 refers to the midpoint of the concentration-response curve.

Data set [1] in a line: Ratio of Cmax in mouse brain to plasma at 5 mg/kg,iv administration. In kind it is ADME, organism-based.
Data set [2] in a line: AUClast in mouse brain at 5 mg/kg,iv administration. In kind it is ADME, organism-based. As to conditions: in vivo.
Data set [3] in a line: Ratio of AUC in mouse brain to plasma at 5 mg/kg,iv administration. The data set is classed as ADME, organism-based. As to conditions: read-out: Ratio AUC.
A short description of data set [4]: Tmax in mouse brain at 5 mg/kg,iv administration. In kind it is ADME, organism-based.
Data set [5] is described as follows: Half life in mouse plasma at 5 mg/kg,iv administration. The data set is classed as ADME, organism-based.
Data set [6] in a line: Cmax in mouse plasma at 5 mg/kg,iv administration. The data set is classed as ADME, organism-based.
Data set [7] can be described thus: Half life in mouse brain at 5 mg/kg,iv administration. The data set is classed as ADME, organism-based.
Data set [8] can be described thus: AUClast in mouse plasma at 5 mg/kg,iv administration. The data set is classed as ADME, organism-based.
A further data set deals with T1, Orexin receptor type 2 (Homo sapiens, UniProt O43614).
T1 sequence (O43614 whole entry): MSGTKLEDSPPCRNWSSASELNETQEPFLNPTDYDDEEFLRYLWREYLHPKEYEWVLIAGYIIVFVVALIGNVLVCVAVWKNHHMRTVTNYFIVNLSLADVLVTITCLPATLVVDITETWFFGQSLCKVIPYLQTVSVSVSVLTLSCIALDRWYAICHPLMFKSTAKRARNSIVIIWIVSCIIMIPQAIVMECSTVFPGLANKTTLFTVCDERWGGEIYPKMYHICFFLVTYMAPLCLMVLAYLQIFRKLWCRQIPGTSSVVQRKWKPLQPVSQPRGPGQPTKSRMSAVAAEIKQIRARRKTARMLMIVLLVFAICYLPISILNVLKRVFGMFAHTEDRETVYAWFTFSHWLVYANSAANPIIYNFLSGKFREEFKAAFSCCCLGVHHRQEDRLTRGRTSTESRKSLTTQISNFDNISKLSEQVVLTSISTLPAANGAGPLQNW
Put plainly: Agonist activity at human OX2R expressed in human HEK293 cells co-transfected with human Galphaq assessed as accumulation of inositol phosphate by scintillation counter analysis.

The nature of data set [9]: Cmax in mouse brain at 5 mg/kg,iv administration. In kind it is ADME, organism-based.
The next data set has as its system HEK293. Briefly: Cytotoxicity against human HEK293 cells upto 100 uM incubated for 3 days. As to conditions: hek293, 72 h, time 3 day. In kind it is toxicity, cell-based.
Data set [10] is described as follows: Tmax in mouse plasma at 5 mg/kg,iv administration. In kind it is ADME, organism-based.

For `Cc1ccc(C[C@@H](CNC(=O)CO)n2c(=N)n(C(C)c3ccc(C)cc3)c3ccccc32)cc1` (stereo in doubt; 65c), the Kp in data set [1] turned out to be 0.026; in data set [3], 0.27. The molecule further returned an AUClast in [2] of 11291 ng·min/g. The Tmax in data set [4] is 0.5 h; in data set [10], 0.167 h. Also, the half-life came to 3.83 h in data set [5] and 12.2 h in data set [7]. Also, the figures for the Cmax in [6] and in data set [9] were 600 ng/mL and 15.3 ng/g, respectively. The molecule also had an AUC(0-t) in [8] of 691 ng·h/mL. In addition, the EC50 on Orexin receptor type 2 is 437 nM. Moreover, the Activity result in the data set with HEK293 is recorded as “Non-Toxic”.
